The values below come from BindingDB's records for patent US20240254114 (Merck Sharp & Dohme, 2024).

The test has as its target T1, Diacylglycerol O-acyltransferase 2 (Homo sapiens, UniProt Q96PD7).
T1 sequence (Q96PD7 whole entry): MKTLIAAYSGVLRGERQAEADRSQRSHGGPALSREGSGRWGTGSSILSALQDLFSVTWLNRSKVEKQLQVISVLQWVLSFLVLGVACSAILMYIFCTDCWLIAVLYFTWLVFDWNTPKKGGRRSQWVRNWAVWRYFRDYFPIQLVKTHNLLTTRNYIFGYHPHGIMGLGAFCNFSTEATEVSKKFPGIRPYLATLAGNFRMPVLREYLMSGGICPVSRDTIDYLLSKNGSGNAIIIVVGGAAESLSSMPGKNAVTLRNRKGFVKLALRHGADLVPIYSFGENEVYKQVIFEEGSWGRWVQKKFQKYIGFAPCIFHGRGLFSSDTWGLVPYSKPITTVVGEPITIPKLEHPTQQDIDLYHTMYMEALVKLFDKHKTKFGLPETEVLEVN
Description: DGAT2 Enzymatic Activity Assay. As to the method:
DGAT2 activity was determined by measuring the amount of enzymatic product 13C18-triolein (13C-1,2,3-Tri(cis-9-octadecenoyl)glycerol) using the membrane prep mentioned above. The assay was carried out in ABgene 384-well assay plates in a final volume of 25 uL at rt.

The IC50 is the concentration that gives 50% inhibition.

In the case of `O=C(NC1CN(C(=O)C(F)(F)F)C1)c1nc2ccc(Oc3ncc(Cl)cc3OCC(F)(F)F)cc2o1` [US20240254114, Example 8], half-maximal inhibition (IC50) required 1.01 µM.
